Measurements from the supplement of paper PMC8671470.

System: myeloid leukemia patient primary cells Pat.4
Experiment: area under dose-response curve (viability, 1 nM-10 uM) (fraction (0-1)); higher = more sensitive
Details: 72 h
Procedure: (§1)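 AUC (0–1, higher = more sensitive) of the 5-point dose–response (1 nM–10 µM, 72 h, CellTiter-Glo) in primary AML/CML patient mononuclear cells. 0.030103 is the floor for inactive compounds.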

SMILES	area under dose-response curve
Oc1ccc(Nc2nc(-c3ccc(Cl)cc3)cs2)cc1 [SKI II]	0.0605
CCC(=O)N1CCN(c2ccc(-n3c(=O)ccc4cnc5ccc(-c6cnc7ccccc7c6)cc5c43)cc2C(F)(F)F)CC1 [Torin1]	0.322

System: myeloid leukemia patient primary cells Pat.5
Experiment: as above
Details: 72 h
Procedure: as §1

SMILES	area under dose-response curve
O=C(C1CC1)N1CC[C@@H](C=C2NNC(=O)N2c2ccc(-c3ccc4occc4c3)cc2)C1	0.292
C[C@H](NC(=O)c1sccc1OCc1ccc(Cl)cc1)c1ccccc1	0.338
O=C(O)C1=CC(=C(c2ccc(O)c(C(=O)O)c2)c2ccc(O)c(C(=O)O)c2)C=CC1=O [Aurintricarboxylic acid]	< 0.0301
COC(=O)[C@]12CCC(C)(C)C[C@H]1[C@H]1C(=O)C=C3[C@@]4(C)C=C(C#N)C(=O)C(C)(C)[C@@H]4CC[C@@]3(C)[C@]1(C)CC2 [Bardoxolone methyl]	0.699
Cc1c(-c2ccc(-c3ccccc3F)cc2)nc2ccc(F)cc2c1C(=O)O [Brequinar]	0.433
Nc1nc(Cl)nc2c1ncn2[C@H]1C[C@H](O)[C@@H](CO)O1 [Cladribine]	0.799
O=C1c2cc([N+](=O)[O-])ccc2-n2c1nc1ccccc1c2=O [GNF-Pf-3777]	0.292
C=C(C)[C@H]1Cc2c(ccc3c2O[C@@H]2COc4cc(OC)c(OC)cc4[C@@H]2C3=O)O1 [Rotenone]	0.99
CCC(=O)N1CCN(c2ccc(-n3c(=O)ccc4cnc5ccc(-c6cnc7ccccc7c6)cc5c43)cc2C(F)(F)F)CC1 [Torin1]	0.802

System: myeloid leukemia patient primary cells Pat.6
Experiment: as above
Details: 72 h
Procedure: as §1

SMILES	area under dose-response curve
O=C(C1CC1)N1CC[C@@H](C=C2NNC(=O)N2c2ccc(-c3ccc4occc4c3)cc2)C1	< 0.0301
C[C@H](NC(=O)c1sccc1OCc1ccc(Cl)cc1)c1ccccc1	0.0893
O=C(O)C1=CC(=C(c2ccc(O)c(C(=O)O)c2)c2ccc(O)c(C(=O)O)c2)C=CC1=O [Aurintricarboxylic acid]	< 0.0301
COC(=O)[C@]12CCC(C)(C)C[C@H]1[C@H]1C(=O)C=C3[C@@]4(C)C=C(C#N)C(=O)C(C)(C)[C@@H]4CC[C@@]3(C)[C@]1(C)CC2 [Bardoxolone methyl]	0.345
Cc1c(-c2ccc(-c3ccccc3F)cc2)nc2ccc(F)cc2c1C(=O)O [Brequinar]	< 0.0301
Nc1nc(Cl)nc2c1ncn2[C@H]1C[C@H](O)[C@@H](CO)O1 [Cladribine]	0.611
O=C1c2cc([N+](=O)[O-])ccc2-n2c1nc1ccccc1c2=O [GNF-Pf-3777]	0.0546
C=C(C)[C@H]1Cc2c(ccc3c2O[C@@H]2COc4cc(OC)c(OC)cc4[C@@H]2C3=O)O1 [Rotenone]	0.399
Oc1ccc(Nc2nc(-c3ccc(Cl)cc3)cs2)cc1 [SKI II]	0.0895

System: myeloid leukemia patient primary cells Pat.7
Experiment: as above
Details: 72 h
Procedure: as §1

SMILES	area under dose-response curve
O=C(C1CC1)N1CC[C@@H](C=C2NNC(=O)N2c2ccc(-c3ccc4occc4c3)cc2)C1	< 0.0301
C[C@H](NC(=O)c1sccc1OCc1ccc(Cl)cc1)c1ccccc1	0.253
O=C(O)C1=CC(=C(c2ccc(O)c(C(=O)O)c2)c2ccc(O)c(C(=O)O)c2)C=CC1=O [Aurintricarboxylic acid]	< 0.0301
COC(=O)[C@]12CCC(C)(C)C[C@H]1[C@H]1C(=O)C=C3[C@@]4(C)C=C(C#N)C(=O)C(C)(C)[C@@H]4CC[C@@]3(C)[C@]1(C)CC2 [Bardoxolone methyl]	0.705
Nc1nc(Cl)nc2c1ncn2[C@H]1C[C@H](O)[C@@H](CO)O1 [Cladribine]	0.62
O=C1c2cc([N+](=O)[O-])ccc2-n2c1nc1ccccc1c2=O [GNF-Pf-3777]	0.0749
C=C(C)[C@H]1Cc2c(ccc3c2O[C@@H]2COc4cc(OC)c(OC)cc4[C@@H]2C3=O)O1 [Rotenone]	0.329
Oc1ccc(Nc2nc(-c3ccc(Cl)cc3)cs2)cc1 [SKI II]	0.424
CCC(=O)N1CCN(c2ccc(-n3c(=O)ccc4cnc5ccc(-c6cnc7ccccc7c6)cc5c43)cc2C(F)(F)F)CC1 [Torin1]	0.195

System: myeloid leukemia patient primary cells Pat.8
Experiment: as above
Details: 72 h
Procedure: as §1

SMILES	area under dose-response curve
O=C(C1CC1)N1CC[C@@H](C=C2NNC(=O)N2c2ccc(-c3ccc4occc4c3)cc2)C1	< 0.0301
C[C@H](NC(=O)c1sccc1OCc1ccc(Cl)cc1)c1ccccc1	< 0.0301
O=C(O)C1=CC(=C(c2ccc(O)c(C(=O)O)c2)c2ccc(O)c(C(=O)O)c2)C=CC1=O [Aurintricarboxylic acid]	< 0.0301
COC(=O)[C@]12CCC(C)(C)C[C@H]1[C@H]1C(=O)C=C3[C@@]4(C)C=C(C#N)C(=O)C(C)(C)[C@@H]4CC[C@@]3(C)[C@]1(C)CC2 [Bardoxolone methyl]	0.328
Cc1c(-c2ccc(-c3ccccc3F)cc2)nc2ccc(F)cc2c1C(=O)O [Brequinar]	< 0.0301
Nc1nc(Cl)nc2c1ncn2[C@H]1C[C@H](O)[C@@H](CO)O1 [Cladribine]	0.609
C=C(C)[C@H]1Cc2c(ccc3c2O[C@@H]2COc4cc(OC)c(OC)cc4[C@@H]2C3=O)O1 [Rotenone]	0.322
Oc1ccc(Nc2nc(-c3ccc(Cl)cc3)cs2)cc1 [SKI II]	0.054
CCC(=O)N1CCN(c2ccc(-n3c(=O)ccc4cnc5ccc(-c6cnc7ccccc7c6)cc5c43)cc2C(F)(F)F)CC1 [Torin1]	0.0632

System: myeloid leukemia patient primary cells Pat.9
Experiment: as above
Details: 72 h
Procedure: as §1

SMILES	area under dose-response curve
O=C(C1CC1)N1CC[C@@H](C=C2NNC(=O)N2c2ccc(-c3ccc4occc4c3)cc2)C1	0.235
C[C@H](NC(=O)c1sccc1OCc1ccc(Cl)cc1)c1ccccc1	0.195
O=C(O)C1=CC(=C(c2ccc(O)c(C(=O)O)c2)c2ccc(O)c(C(=O)O)c2)C=CC1=O [Aurintricarboxylic acid]	< 0.0301
COC(=O)[C@]12CCC(C)(C)C[C@H]1[C@H]1C(=O)C=C3[C@@]4(C)C=C(C#N)C(=O)C(C)(C)[C@@H]4CC[C@@]3(C)[C@]1(C)CC2 [Bardoxolone methyl]	0.813
Cc1c(-c2ccc(-c3ccccc3F)cc2)nc2ccc(F)cc2c1C(=O)O [Brequinar]	0.532
Nc1nc(Cl)nc2c1ncn2[C@H]1C[C@H](O)[C@@H](CO)O1 [Cladribine]	0.762
O=C1c2cc([N+](=O)[O-])ccc2-n2c1nc1ccccc1c2=O [GNF-Pf-3777]	0.158
C=C(C)[C@H]1Cc2c(ccc3c2O[C@@H]2COc4cc(OC)c(OC)cc4[C@@H]2C3=O)O1 [Rotenone]	0.55
Oc1ccc(Nc2nc(-c3ccc(Cl)cc3)cs2)cc1 [SKI II]	0.341
CCC(=O)N1CCN(c2ccc(-n3c(=O)ccc4cnc5ccc(-c6cnc7ccccc7c6)cc5c43)cc2C(F)(F)F)CC1 [Torin1]	0.36
